Data reported in patent US11565022B2, “Therapy for post-traumatic osteoarthritis” (University of Iowa Research Foundation, priority 2015, dated 2023).

Tested on: complex I of the electron transport chain in chondrocytes
Assay: complex I activity in the presence or absence of amobarbital (FIG. 4)
Type: biochemical

`CCC1(CCC(C)C)C(=O)NC(=O)NC1=O` [amobarbital] was tested, and the “biochemical activity of complex I of the electron transport chain” value was “directly inhibits”.
